Measured values as given in patent US20240209456A1, “METHODS AND COMPOSITIONS RELATED TO CELL-CYCLE RNA's” (BETH ISRAEL DEACONESS MEDICAL CENTER, priority 2021, published 2024).
*1 amine or outer side, *2 acyl side, *3 side chain or, on linkers, in order; H or OH if unused. Where a SMILES comes first, the peptide text is derived from it. Bridges are numbered along the chain shown (N, C = ends). Roman numbers before positions name the chains, in order. [ ]: non-standard residue; d: D form. Actinocin(9to1) = Cc1c2oc3c(C)ccc(C(=O)[*:1])c3nc-2c(C(=O)[*:2])c(N)c1=O; NMeV = CN[C@H](C(=O)O)C(C)C; Sar = CNCC(=O)O

System: c-MYC SPEARs
Assay: qRT-PCR / strand-specific qRT-PCR of c-MYC SPEARs
Assay type: cell-based, human
Details: for c-MYC SPEARs level upon transcription inhibitors: HL-60, DRB and ActD, FIG. 10C; for response of total c-MYC SPEARs: HL-60 released from double thymidine block, 2 hrs, MG149 200 μM, TH1834 500 μM
Procedure: Total RNA isolation was carried out and all RNA samples used in this study were treated with DNase I (10 U of DNase I per 3 μg of total RNA; 37° C. for one hour; in the presence of RNase inhibitor). After DNase I treatment, RNA samples were extracted with acidic phenol (pH 4.3) to eliminate any remaining traces of DNA. cDNA syntheses were performed with Random Primers (Invitrogen) or gene-specific primers with Transcriptor Reverse Transcriptase (Roche Applied Science) according to the manufacturer's recommendation. cDNA was purified with a High Pure PCR Product Purification Kit (Roche Applied Science).
Sybr green reaction was performed using iQ Sybr Green supermix (Biorad, Hercules, CA) using the following parameters: 95° C. (10 min), 40 cycles of 95° C. (15 s) and 60° C. (1 min) 72° C. (1 min). TaqMan analysis was performed using Hotstart Probe One-step qRT-PCR master mix (USB) at the following conditions: 50° C. (10 min.), 95° C. (2 min.), and then 40 cycles of 95° C. (15 sec.) and 60° C. (60 sec.).
Primers used for strand-specific real-time RT PCR (Sybr): Reverse Transcriptase primer for c-MYC SPEARs: 5′-AACCGCATCCTTGTCCTGTGAGTA-3′ (SEQ ID NO: 1); PCR primers: Forward: 5′-ACAGGCAGACACATCTCAGGGCTA-3′ (SEQ ID NO: 2); Reverse: 5′-ATAGGGAGGAATGATAGAGGCATA-3′ (SEQ ID NO: 3); and Reverse Transcriptase primer for PU1 SPEARs: 5′-GGCTTTTGCTCTAACCCAAC-3′ (SEQ ID NO: 4); PCR primers: Forward: 5′-ACTATGCTGAAGACCCTACAC-3′ (SEQ ID NO: 5); Reverse: 5′-GCTCTAACCCAACAAATGCC-3′ (SEQ ID NO: 6).
Nascent RNA/DNA capture was performed using Click-iT Nascent RNA Capture Kit (ThermoFisher) according to the manufacturer's instructions with minor modifications. Briefly, 1. Labeling the cells with EU/EdU. 200 mM EU or 30 mM EdU stock solutions were added to the cells, to a final concentration 0.5 mM or 30 μM, respectively. 2. Incubation. The cells were incubated for 1 or 2 hours. 3. RNA/DNA isolation. The cells were harvested and the RNA/DNA were isolated and dissolved in 14 μL of H2O. 4. Biotinylation of RNA/DNA by Click reaction. Click-iT reaction cocktail (50 μL per reaction) was prepared accordingly to manufacturer's instructions: a mixture containing 1× Click-iT EU buffer; 2 mM CuSO4; 1 mM Biotin azide; 13.25 μL of the isolated RNA; 10 mM Click-iT reaction buffer additive 1; 12 mM Click-iT reaction buffer additive 2 was prepared. After adding each component, the reaction cocktail was gently mixed by vortexing. The addition of the Click-iT reaction buffer additive 1 stock initiates the click reaction between the EU-RNA/EdU-DNA and biotin azide. Afterwards the Click-iT® reaction buffer additive 2 is added and incubated for 30 minutes with gentle vortexing. 5. RNA/DNA precipitation. […]

Row | SMILES | c-MYC SPEARs level upon transcription inhibitors | response of total c-MYC SPEARs
1 | Cc1c2oc3c(C)ccc(C(=O)N[C@@H]4C(=O)N[C@H](C(C)C)C(=O)N5CCC[C@H]5C(=O)N(C)CC(=O)N(C)[C@@H](C(C)C)C(=O)O[C@@H]4C)c3nc-2c(C(=O)N[C@@H]2C(=O)N[C@H](C(C)C)C(=O)N3CCC[C@H]3C(=O)N(C)CC(=O)N(C)[C@@H](C(C)C)C(=O)O[C@@H]2C)c(N)c1=O [ActD, Actinomycin D] (I: T[dV]P[Sar][NMeV] / II: T[dV]P[Sar][NMeV]; ester I:1-I:C, II:1-II:C; linker I:N-II:N via Actinocin(9to1)) | negatively affected | 
2 | O=C(O)Cn1nnc(-c2ccc(CN(CCCCOc3ccc(CN4CCCC4)cc3)CCc3ccccc3)cc2)n1 [TH1834] |  | not affected
3 | OC[C@H]1O[C@@H](n2cnc3cc(Cl)c(Cl)cc32)[C@H](O)[C@@H]1O [DRB, 5,6-Dichlorobenzimidazole 1-β-D-ribofuranoside] | negatively affected | 
4 | CCCCCCCc1ccc(CCc2cccc(O)c2C(=O)O)cc1 [MG149] |  | not affected
